Assays:
Klebsiella pneumoniae = assay: Anti-infectious activity: protection of mice inoculated with Klebsiella pneumoniae; format: in vivo; conditions: for Protection (%) / Survival at day 10 of infection No/total: 100 μg i.v. at day -1; for Protection (%): i.m. infection with 1.5 × 10^4 viable organisms, difference between percentages of survivors in treated and control group; for Survival at day 10 of infection No/total: infection by the intramuscular route with 1.5 × 10^4 viable organisms; for % protection: difference of percentages of survivors, treated vs control group
adrenalectomized mice = conditions: 100 μg injected intravenously into five adrenalectomized mice
rabbits = conditions: doses as high as 5 mg/kg of body weight
[1] = concentration as high as 100 μg/ml
[2] = 100 μg i.v. 24 H before infection, infection 3.10^4 K.p. i.m., 24 mice at day 0
[3] = 100 μg i.v. 24 H before infection, infection 4.10^3 K.p. i.v., 24 mice at day 0 (8 for glyceryl-mycolate)

| Compound | Protection (%) (Klebsiella pneumoniae) | Survival at day 10 of infection No/total (Klebsiella pneumoniae) | further results |
| --- | --- | --- | --- |
| 1-O(L-Ala-D-isoAsn-L-Ala)-glycerol-3-mycolate | 37 | 16/32 |  |
| 1-O(L-alanyl-D-isoglutaminyl-L-alanyl)glycerol-3-mycolate | 70 | 31/40 | Number of mice day 3 (Klebsiella pneumoniae; [2]): 23; Number of mice day 5 (Klebsiella pneumoniae; [2]): 20; Number of mice day 10 (Klebsiella pneumoniae; [2]): 17; % protection (Klebsiella pneumoniae; 100 μg i.v. 24 H before infection, infection 3.10^4 K.p. i.m.): 37%; Number of mice day 3 (Klebsiella pneumoniae; [3]): 21; Number of mice day 5 (Klebsiella pneumoniae; [3]): 21; Number of mice day 10 (Klebsiella pneumoniae; [3]): 21; % protection (Klebsiella pneumoniae; 100 μg i.v. 24 H before infection, infection 4.10^3 K.p. i.v.): 79%; death of adrenalectomized mice (adrenalectomized mice): did not cause death of any of them; hyperthermizing (pyrogenic) effect (rabbits): no hyperthermizing effect; Limulus test result [1]: negative |
| 1-O-(D-isoGln-L-Ala)-glycerol-3-mycolate hydrochloride | 47 | 28/49 |  |
| 1-O-(L-Ala-D-Gln-L-Ala)-glycerol-3-mycolate | 12 | 8/32 |  |
| 1-O-(L-Ala-D-isoGln-L-Ala)-glycerol-3-corynomycolate | 28 | 11/32 |  |
| 1-O-(L-alanyl)-glycerol-3-mycolate hydrochloride [1-O--(L--Ala)--glycerol-3-mycolate] | 35 | 16/40 |  |
| 1-O-(L-alanyl-L-isoglutaminyl-L-alanyl)-glycerol-3-mycolate hydrochloride | 12 | 7/32 |  |
| 1-O-(β-Ala-D-isoGln-L-Ala)-glycerol-3-mycolate hydrochloride | 25 | 12/32 |  |
| CCCCCCCCCCCCCCCCCC(=O)OCC(COC(=O)[C@H](C)NC(=O)CC[C@@H](NC(=O)[C@H](C)N)C(N)=O)OC(=O)CCCCCCCCCCCCCCCCC.Cl (stereo partly drawn) [1-O-(L-Ala-D-isoGln-L-Ala)-glycerol-2,3-distearate hydrochloride] | 12 | 5/24 |  |
| CCCCCCCCCCCCCCCCCC(=O)OCC(O)COC(=O)[C@H](C)NC(=O)CC[C@@H](NC(=O)[C@H](C)N)C(N)=O.Cl (stereo partly drawn) [1-O-(L-Ala-D-isoGln-L-Ala)-glycerol-3-stearate hydrochloride] | 8 | 4/24 |  |
| CCCCCCCCCCOC(=O)C(C)NC(=O)CCC(NC(=O)C(C)N)C(N)=O.Cl [DP--L--Ala--decyl ester, L-Ala-D-isoGln-L-Ala-n-decylester hydrochloride] | 0 | 1/24 |  |
| CCCCCCCCCCCCCCCOC(=O)[C@H](C)NC(=O)CC[C@@H](NC(=O)[C@H](C)N)C(N)=O.Cl [DP--L--Ala--pentadecylester, L-Ala-D-isoGln-L-Alan-n-pentadecylester hydrochloride] | 4 | 4/32 |  |
| glycerol-3-mycolate [Glyceryl-mycolate, reference compound] |  |  | Number of mice day 3 (Klebsiella pneumoniae; mouse, in vivo, iv): 1; Number of mice day 5 (Klebsiella pneumoniae; mouse, in vivo, iv): 1; Number of mice day 10 (Klebsiella pneumoniae; mouse, in vivo, iv): 1; anti-infectious activity (in words) (Klebsiella pneumoniae; mouse, in vivo, iv): devoid of significant activity |

Reference: patent publication US4335111A, “Compounds associating peptidyl of aminoacyl residues to lipophilic groups and pharmaceutical compositions containing said new compounds” (priority 1978, dated 1982)
